According to publication PMC8151276, “An Integrated Approach toward NanoBRET Tracers for Analysis of GPCR Ligand Engagement” (Molecules, 2021):

How the values were obtained:
[1] = target: T1, CCR10 (Homo sapiens, UniProt P46092); experiment: NanoBRET screen HiBiT-CCR10 in HEK293; assay type: binding; conditions: CCR10
T1 construct: purchased Promega (in-house HiBiT-GPCR construct library, NanoBRET)
T1 sequence (P46092 1-362): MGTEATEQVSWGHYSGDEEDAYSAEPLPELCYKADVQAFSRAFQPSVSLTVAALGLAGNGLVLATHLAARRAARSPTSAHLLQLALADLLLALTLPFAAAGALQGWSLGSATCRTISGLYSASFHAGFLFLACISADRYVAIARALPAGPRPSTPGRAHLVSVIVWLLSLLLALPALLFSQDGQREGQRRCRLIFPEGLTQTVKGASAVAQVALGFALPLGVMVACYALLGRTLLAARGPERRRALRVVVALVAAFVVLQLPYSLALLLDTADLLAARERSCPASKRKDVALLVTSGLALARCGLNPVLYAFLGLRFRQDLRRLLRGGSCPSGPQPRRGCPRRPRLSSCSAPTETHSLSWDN
Procedure: (§1) Each tracer candidate was screened across the entire library of HiBiT-GPCR constructs using NanoBRET as the detection modality. As depicted in Figure 4A, the specificity of interactions was evaluated through decrease in BRET due to competitive displacement of a bound tracer by excess parental compound. Each tracer was analyzed for binding to each HiBiT-GPCR fusion in the absence and in the presence of competing parental compound. Briefly, HEK293 cells were transfected with HiBiT-GPCR constructs diluted into promoterless DNA to reduce expression and maximize translocation to the cell surface. Each tracer candidate was then screened at concentrations of 1 μM and 0.1 μM across cells expressing these fusions. Cells were treated for 1.5 h with tracer either alone or in the presence of 20 μM competing parental compound (i.e., control). BRET was measured upon addition of purified LgBiT and subsequent complementation with HiBiT genetically fused to a GPCR. The specificity of interactions was assessed through a decrease in BRET signal due to competitive displacement of the bound tracer. To further gauge the robustness of these interactions, the fold response over the control (i.e., BRETtracer/BRETcontrol) was calculated. We chose a 1.5-fold response, which translates to ≥7-fold signal over noise as the minimal threshold required to score an interaction as positive.
(§2) HiBiT-GPCR DNA constructs were diluted in 10 mM Tris pH 8 to a final concentration of 0.01 μg/μL, arrayed in 96-well plates and stored at −20 °C. For transfection, HEK293 cells were suspended in Opti-MEM (without phenol red) supplemented with 2% fetal bovine serum (Seradigm) and 100 units/mL penicillin–streptomycin (Gibco) at a final concentration of 220,000 cells/mL and dispensed into white 96-well plates at 90 μL/well. Subsequent transfections and screens were carried using an Agilent Bravo Automated Liquid Handling Platform. First, the 96-well HiBiT DNA arrays were diluted 25-fold in Opti-MEM (without serum or phenol red) to a final concentration of 0.0004 μg/μL and 20 μL of the diluted DNAs were transferred into new 96-well plates. Next, promoterless carrier DNA (1 μg/μL) was diluted 25-fold (0.04 μg/μL) and then dispensed into the diluted arrays at 20 μL/well. Following brief mixing, Viafect transfection reagent (Promega) diluted 16-fold into Opti-MEM was dispensed into the plates at 40 μL/well. After mixing by pipetting, plates were incubated for 10 min on the pipetting station deck. The DNA-transfection reagent complexes were then added to plates containing cells. To facilitate the screen, 10 μL of DNA-transfection reagent complexes were added in duplicates to the top 4 and bottom 4 rows, resulting in two identical 48-well arrays per plate. Plates with transfected cells were incubated for 18–20 h at 37 °C/5% CO2. A screen of each tracer across the entire library using two different concentrations requires duplicate plates of transfected cells. Depending on the number of tracers being screened, transfections can be scaled up using the same ratios. The next day, for each tracer, four 20× screening solutions in tracer dilution buffer (Promega) were prepared: two duplicates at final concentration of 20 μM and two duplicates at a final concentration of 2 μM. […] The four resulting solutions were diluted 4-fold in Opti-MEM without serum or phenol red to generate 5× solutions (5 µM and 0.5 µM tracer +/− 100 μM competing compound). To screen the library, a BioTek MultiFlo FX liquid dispenser was used to dispense 22.5 µL of tracer solution to the top 4 rows and 22.5 µL tracer + competing compound solution to the 4 bottom rows. Plates were briefly mixed on an orbital shaker and incubated for 1.5 h at room temperature. […] Plates were briefly mixed on an orbital shaker and incubated for 15 min to allow complementation.

[2] = target: T2, OPRM1 (Homo sapiens, UniProt P35372); experiment: NanoBRET screen HiBiT-OPRM1 in HEK293; assay type: binding; conditions: OPRM1
T2 construct: purchased Promega (in-house HiBiT-GPCR construct library, NanoBRET)
Procedure: as §1, §2

T2 sequence (P35372 whole entry): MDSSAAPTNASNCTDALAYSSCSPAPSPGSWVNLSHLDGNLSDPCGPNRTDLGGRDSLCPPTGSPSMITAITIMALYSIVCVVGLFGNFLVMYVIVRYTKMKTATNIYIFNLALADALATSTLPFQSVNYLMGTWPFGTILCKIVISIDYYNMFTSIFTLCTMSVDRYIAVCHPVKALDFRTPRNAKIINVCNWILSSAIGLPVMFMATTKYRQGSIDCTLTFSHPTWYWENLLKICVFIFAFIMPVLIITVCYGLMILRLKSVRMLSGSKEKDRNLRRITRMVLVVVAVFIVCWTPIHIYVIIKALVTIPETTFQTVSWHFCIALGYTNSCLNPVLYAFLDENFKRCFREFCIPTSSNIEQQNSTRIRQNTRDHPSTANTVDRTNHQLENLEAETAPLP

Structure (SMILES) | NanoBRET Fold Response ([1]; tracer 0.1μM) | NanoBRET Fold Response ([1]; tracer 1μM) | NanoBRET Fold Response ([2]; tracer 0.1μM) | NanoBRET Fold Response ([2]; tracer 1μM)
CC(C)N(CC[C@H](c1ccccc1)c1cc(CCNC(=O)c2ccc(CNC(=O)CCc3ccc4n3[B-](F)(F)[N+]3=C(c5ccc[nH]5)C=CC3=C4)cc2)ccc1O)C(C)C [Tolterodine-BZ-NB590] | 1.00 | 1.08 | 0.95 | 0.93
CCCn1c(=O)c2[nH]c(-c3ccc(OCC(=O)NCCNC(=O)CCOCCNC(=O)c4ccc(CNC(=O)CCc5ccc6n5[B-](F)(F)[N+]5=C(c7ccc[nH]7)C=CC5=C6)cc4)cc3)nc2n(CCC)c1=O [XAC-3-NB590] | 0.92 | 0.78 | 0.85 | 1.02
